Reference: patent publication US7592503B2, “Mammalian telophase oocyte enucleation” (Trustees of Tufts College, priority 1998, dated 2009)

Columns and labels:
mouse oocytes = assay: Activation of metaphase II oocytes to Telophase II stage in vitro; type: cell-based; settings: ionomycin 4 μM, 5 min; 3 replicate experiments
Experimental: Oocytes were collected from superovulated mice by flushing oviducts to collect metaphase II stage oocytes. Oocytes were then activated by one of two methods to reach the Telophase II state in vitro: culture-induced Ca^2+ activation or ionomycin activation (4 μM, 5 min), and enucleated. Karyoplasts were prepared from cumulus cells (natural G0 stage) and nuclear transfer was conducted followed by electrical fusion with Telophase II cytoplasts.

[1] = system: mouse metaphase II oocytes; assay: Treatment-induced nuclear chromatin enucleation of activated oocytes (H33342 staining, fluorescence microscopy); type: cell-based; settings: for rate of treatment-induced chromatin enucleation: ethanol- or ionomycin-activated B6D2 oocytes, Taxol 5 μg/ml, Cycloheximide 10 μg/ml, Demecolcine 0.4 μg/ml in PBS+10% FBS, 0.5-1.5 h post activation; for rate of treatment-induced chromatin enucleation (range in parentheses): same treatments, range printed in parentheses
Source text: Advances in somatic cell nuclear transfer (NT) methodology have seen the procession of cloned sheep, cows, mice and goats. Despite the clear potential use of this technology for genetic manipulations, the success rates remain woefully low. The limitations associated with nuclear transfer include the selection and preparation of competent donor cytoplasts. The cytoplasm plays a vital role in genome reprogramming and reactivation and therefore manipulations that compromise oocyte developmental competence are detrimental to the success of nuclear transfer. The present study was directed towards determining alternative methods to more efficiently prepare competent cytoplasts for nuclear transfer procedures. In experiment 1, in vivo-produced mouse metaphase II oocytes (B6D2, aguti, recovered at 16-20 h post hCG) were activated by exposure to either 7% ethanol or 2 μm ionomycin in PBS+10% FBS (5 min.). At the onset of initial second polar body formation (10-15 min. post activation) and extrusion (anaphase/telophase stage), oocytes were randomly allocated to control (cultured 0.5-1.5 h) or incubated with Taxol® (5 μg/ml), Cycloheximide (10 μg/ml) or in Demecolcine (0.4 μg/ml) in PBS+10% FBS until the second polar body was extruded (0.5-1.5 h post activation) to induce nuclear chromatin enucleation. Oocytes were stained (H33342, 5 μg/ml) to confirm the extent of nuclear chromatin enucleation using fluorescence microscopy. […] In experiment 2, Demecolcine-induced enucleated cytoplasts were used for nuclear transfer recipients. Donor nuclei were prepared from cumulus cells (Black Swiss) by partial lysis (1% sodium citrate) followed by aspiration using the injection pipette (7 um). Donor nuclei were injected into cytoplasts pretreated with Cytochalasin-B (5 μg/ml, 15 min.). Reconstructed NT embryos were subsequently co-cultured (72-96 h) with oviductal cells in drops of M-199+10% FBS. The cleavage rate was 70% (85/121) and the rate of blastocyst formation was 42% (51/121). Pregnancies were established in 2/3 recipients (CD1, white) following uterine embryo transfer (10 embryos/recipient). A total of 14 black female pups were born (47%, 14/30), seven of which were stillborn from 1 recipient and the other seven were born live (23%, 7/30) but 3 were cannibalized within 24 h. The 4 cloned pups were normal and healthy, and their fertility is being assessed. […] Moreover, cytoplasts derived from this enucleation procedure are competent to support genome reactivation and fetal development to term. This technically simple approach may provide a more efficient method to produce large numbers of cytoplasts for cloning procedures.

C[C@H](CCC(=O)O)C[C@H](C)C[C@H](C)C(=O)/C=C(\O)[C@H](C)C[C@H](C)C/C=C/[C@@H](C)[C@@H](O)[C@@H](C)[C@@H](O)C[C@@H]1CC[C@@](C)([C@H]2CC[C@@](C)([C@@H](C)O)O2)O1 [Ionomycin, ionomycin]
Activation, Number (activated/treated oocytes) (mouse oocytes): 46/50 | Activation, Percent (mouse oocytes): 92%

CN[C@H]1CCc2cc(OC)c(OC)c(OC)c2-c2ccc(OC)c(=O)cc21 [Demecolcine]
rate of treatment-induced chromatin enucleation [1]: 54% | rate of treatment-induced chromatin enucleation (range in parentheses) [1]: 27-70%

C[C@@H]1C[C@@H]([C@H](O)CC2CC(=O)NC(=O)C2)C(=O)[C@@H](C)C1 [Cycloheximide]
rate of treatment-induced chromatin enucleation [1]: 16.3% | rate of treatment-induced chromatin enucleation (range in parentheses) [1]: 0-24%

CC(=O)O[C@H]1C(=O)[C@@]2(C)[C@H]([C@H](OC(=O)c3ccccc3)[C@]3(O)C[C@H](OC(=O)[C@H](O)[C@@H](NC(=O)c4ccccc4)c4ccccc4)C(C)=C1C3(C)C)[C@]1(OC(C)=O)CO[C@@H]1C[C@@H]2O [Taxol®, paclitaxel]
rate of treatment-induced chromatin enucleation [1]: 3.6% | rate of treatment-induced chromatin enucleation (range in parentheses) [1]: 0-10%
